Assay results taken from patent publication US20240210412A1, “SULFONYL-TRIAZOLE COMPOUNDS USEFUL AS LIGANDS AND INHIBITORS OF PROSTAGLANDIN REDUCTASE 2” (University of Virginia Patent Foundation, priority 2021, published 2024).
Entries after “also recorded” stand apart in the source; their conditions may differ.

Columns and labels:
[1] = target: T1, PTGR2 (Homo sapiens, UniProt Q8N8N7); experiment: gel-based ABPP, HHS-475 probe, HEK293T cells expressing recombinant PTGR2; format: cell-based; conditions: live HEK293T cells, ligand 25 μM or varying, 2 h; HHS-475 100 μM
T1 construct: host or cells: HEK293T
T1 sequence (Q8N8N7 whole entry): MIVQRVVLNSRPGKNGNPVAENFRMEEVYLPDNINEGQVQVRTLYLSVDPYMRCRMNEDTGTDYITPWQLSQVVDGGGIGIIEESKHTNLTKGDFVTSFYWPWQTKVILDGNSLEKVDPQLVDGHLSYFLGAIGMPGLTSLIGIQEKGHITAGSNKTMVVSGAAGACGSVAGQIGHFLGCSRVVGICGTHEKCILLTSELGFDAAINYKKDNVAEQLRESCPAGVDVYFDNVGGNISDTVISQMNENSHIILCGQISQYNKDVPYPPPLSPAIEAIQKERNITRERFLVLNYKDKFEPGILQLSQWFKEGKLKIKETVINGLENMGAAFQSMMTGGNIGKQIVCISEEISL
Procedure: HEK293T cells at 30-50% confluency were transfected with 2.6 μg of FAH or PTGR2 plasmid DNA in a serum-free media/polyethyleneimine solution for 48 hrs. The cells were washed once with warm, sterile DPBS (1×, 5 mL), and then 10 mL of serum-free media (supplemented with 1% L-glutamine) containing either DMSO or SuTEx fragment (in DMSO) was added. After 2 hrs, the cells were treated with 100 μM of SuTEx alkyne probe (HHS-475, 10 μL of 1000× DMSO stock) and incubated for an additional 2 hrs. The media was aspirated and cells washed with cold PBS (5 mL) and harvested. Cells were spun at 500×g for 5 min at 4° C. and supernatant was removed. Pellets were resuspended in 1 mL of cold DPB S and spun at 1,400×g for 3 min at 4° C. and supernatant was removed. The cells were lysed in PBS by sonication and fractionated (100,000×g, 45 min, 4° C.). The soluble fraction was diluted to 1 mg/mL in PBS and 49 μL was used for analysis. […] The samples were analyzed by SDS-PAGE (30 μL) and imaged by in-gel fluorescence scanning.
Confirmatory studies were also performed on prostaglandin reductase 2 (PTGR2) because of its role in the reduction of the bioactive lipid, 15-keto-PGE2^[17]. […] The remaining fluorescent signal detected on PTGR2 Y100F mutant protein is likely due to probe labeling of additional tyrosine sites identified on wild-type protein.
To assess the PTGR2 inhibitory activity of AMC-0702 and AMC-0703, HEK293T cells expressing PTGR2 were pretreated with vehicle, HHS-0101 (25 μM), HHS-0701 (25 μM), AMC-0702 (25 μM-0.1 μM), or AMC-0703 (25 μM-0.1 μM) for 2 hours followed by HHS-475 probe labelling in live cells (25 μM, 2 hours). Cells were lysed and probe-modified PTGR2 in proteomes detected by copper-catalyzed azide-alkyne cycloaddition conjugation of rhodamine-azide, SDS-PAGE, and in-gel fluorescence scanning. Inhibitory activity of compounds is determined by reductions in fluorescent band intensity from HHS-475 probe labeling of proteins detected in proteomes. […]

[2] = target: T2, P16930 (fumarylacetoacetase, FAH) (Homo sapiens, UniProt P16930); experiment: SILAC LC-MS ABPP; format: cell-based
T2 construct: endogenous in cells; host or cells: DM93 (SILAC)
T2 sequence (P16930 whole entry): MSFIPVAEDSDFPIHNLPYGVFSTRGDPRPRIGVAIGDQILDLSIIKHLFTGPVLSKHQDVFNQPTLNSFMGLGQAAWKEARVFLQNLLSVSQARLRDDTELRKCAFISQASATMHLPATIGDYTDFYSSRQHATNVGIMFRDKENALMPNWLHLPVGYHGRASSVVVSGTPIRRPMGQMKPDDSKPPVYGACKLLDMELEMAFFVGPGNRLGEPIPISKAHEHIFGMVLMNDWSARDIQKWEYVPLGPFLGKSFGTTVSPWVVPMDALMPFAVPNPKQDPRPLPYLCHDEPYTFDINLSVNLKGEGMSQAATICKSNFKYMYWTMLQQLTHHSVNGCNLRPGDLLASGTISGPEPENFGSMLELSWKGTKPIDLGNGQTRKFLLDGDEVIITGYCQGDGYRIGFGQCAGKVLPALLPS
Procedure: Cells were grown to 90-95% confluence before being washed once with warm, sterile DPBS (1×, 5 mL), followed by addition of 10 mL of serum-free media (supplemented with 1% L-glutamine) containing either DMSO or SuTEx fragment (in DMSO) was added. Light cells were treated with DMSO vehicle while the heavy cells were treated with DMSO or SuTEx fragment (in DMSO) and incubated for 2 hrs. After 2 hrs, the cells were treated with SuTEx alkyne probe (HHS475, 10 μL of 1000× DMSO stock) and incubated for an additional 2 hrs. The media was aspirated and cells washed with cold PBS (5 mL) and harvested. Cells were spun at 500×g for 5 min at 4° C. followed by removal of supernatant. […]
Coupling cell-based screens with chemical proteomics can facilitate the identification of target protein and binding sites that engage and are irreversibly modified by covalent ligands^[12]. In these assays, covalent ligands block SuTEx activity-based probe (ABP) labeling at protein sites, and the competition of probe labeling can be used to quantify potency and selectivity across the proteome^[10a]. To facilitate quantitative chemical proteomics, DM93 melanoma cells were cultured using stable isotopic labeling by amino acids in cell culture (SILAC)^[13]. […] Probe-modified peptides were resolved, identified, and quantified by high-resolution liquid chromatography-tandem mass spectrometry (LC-MS/MS). […]

SMILES	blockade of HHS-475 labeling of PTGR2 [1]	liganded tyrosine site 244 ([2]; 25 μM 2 h, live DM93 cells)	FAH Y244 site liganded ([2]; live DM93 cells treated with ligand)
O=C(NC1CC1)c1ccc(S(=O)(=O)n2cncn2)cc1 [HHS-0101, 4-((1H-1,2,4-triazol-1-yl)sulfonyl)-N-cyclopropylbenzamide]	not	HHS0101.Y|HHS0201.Y|HHS0301.Y|HHS0401.Y|HHS0701.Y (tyrosine sites that showed >80% reductions (SR >5) in probe labeling in cells treated with compounds (liganded sites))	–
O=C(NCc1ccccc1)c1ccc(S(=O)(=O)n2cncn2)cc1 [HHS-0401, 4-((1H-1,2,4-triazol-1-yl)sulfonyl)-N-benzylbenzamide]	–	–	> 90%
O=C(c1ccc(S(=O)(=O)n2cncn2)cc1)N1CCC(c2ccccc2)CC1 [HHS-0701, (4-((1H-1,2,4-triazol-1-yl)sulfonyl)phenyl)(4-phenylpiperidin-1-yl)methanone]	could block HHS-475 labeling of PTGR2; also recorded: concentration-dependent blockade of probe labeling	–	–
